What was measured:
Assay in all cases: NCI single-dose screen (SRB)
Assay type in all cases: cell-based
COLO 205 = conditions: Homo sapiens; Colon Cancer COLO 205; 10^−5 M; read-out: Growth inhibition percentage
Method: (§1) The methodology of the NCI anticancer screening was described in detail elsewhere (http://www.dtp.nci.nih.gov). […] Tested compounds were added to the culture at a single concentration (10^−5 M) and the cultures were incubated for 48 h. End-point determinations were made with a protein binding dye, SRB. Results for each tested compound were reported as the percentage growth of the treated cells when compared to the untreated control cells. The percentage growth was evaluated spectrophotometrically versus controls not treated with test agents. All experiments were repeated three times (Table 1).
(§2) Briefly, the protocol was performed on 60 human tumor cell lines derived from different nine neoplastic diseases. […] If the results obtained met selection criteria, then the compound was tested again on all 60 cell lines in 5× 10-fold dilutions with the top dose being 10^−4 M or 150 μg/mL. Detailed methods are described in the Supplementary Materials related to this article.
(§3) on their site (http://www.dtp.nci.nih.gov). But briefly, the protocol performed at sixty human
(§4) National Cancer Institute, Bethesda, USA. If the results obtained meet selection criteria, then the
(§5) 10-4 molar or 150 μg/mL. […]

NCI-H460 = conditions: Homo sapiens; Non-Small-Cell Lung Cancer NCI-H460; 10^−5 M; read-out: Growth inhibition percentage
Method: as §1, §2, §3, §4, §5

SK-MEL-28 = conditions: Homo sapiens; Melanoma SK-MEL-28; 10^−5 M; read-out: Growth inhibition percentage
Method: as §1, §2, §3, §4, §5

MDA-MB-435 = conditions: Homo sapiens; Melanoma MDA-MB-435; 10^−5 M; read-out: Growth inhibition percentage
Method: as §1, §2, §3, §4, §5

CCRF-CEM = conditions: Homo sapiens; Leukemia CCRF-CEM; 10^−5 M; read-out: Growth inhibition percentage
Method: as §1, §2, §3, §4, §5

HOP-62 = conditions: Homo sapiens; Non-Small-Cell Lung Cancer HOP-62; 10^−5 M; read-out: Growth inhibition percentage
Method: as §1, §2, §3, §4, §5

SK-MEL-5 = conditions: Homo sapiens; Melanoma SK-MEL-5; 10^−5 M; read-out: Growth inhibition percentage
Method: as §1, §2, §3, §4, §5

OVCAR-8 = conditions: Homo sapiens; Ovarian Cancer OVCAR-8; 10^−5 M; read-out: Growth inhibition percentage
Method: as §1, §2, §3, §4, §5

UACC-62 = conditions: Homo sapiens; Melanoma UACC-62; 10^−5 M; read-out: Growth inhibition percentage
Method: as §1, §2, §3, §4, §5

A549/ATCC = conditions: Homo sapiens; Non-Small-Cell Lung Cancer A549/ATCC; 10^−5 M; read-out: Growth inhibition percentage
Method: as §1, §2, §3, §4, §5

NCI-H23 = conditions: Homo sapiens; Non-Small-Cell Lung Cancer NCI-H23; 10^−5 M; read-out: Growth inhibition percentage
Method: as §1, §2, §3, §4, §5

LOX IMVI = conditions: Homo sapiens; Melanoma LOX IMVI; 10^−5 M; read-out: Growth inhibition percentage
Method: as §1, §2, §3, §4, §5

HCC-2998 = conditions: Homo sapiens; Colon Cancer HCC-2998; 10^−5 M; read-out: Growth inhibition percentage
Method: as §1, §2, §3, §4, §5

NCI-H226 = conditions: Homo sapiens; Non-Small-Cell Lung Cancer NCI-H226; 10^−5 M; read-out: Growth inhibition percentage
Method: as §1, §2, §3, §4, §5

BT-549 = conditions: Homo sapiens; Breast Cancer BT-549; 10^−5 M; read-out: Growth inhibition percentage
Method: as §1, §2, §3, §4, §5

SR = conditions: Homo sapiens; Leukemia SR; 10^−5 M; read-out: Growth inhibition percentage
Method: as §1, §2, §3, §4, §5

DU-145 = conditions: Homo sapiens; Prostate Cancer DU-145; 10^−5 M; read-out: Growth inhibition percentage
Method: as §1, §2, §3, §4, §5

HCT-116 = conditions: Homo sapiens; Colon Cancer HCT-116; 10^−5 M; read-out: Growth inhibition percentage
Method: as §1, §2, §3, §4, §5

SNB-19 = conditions: Homo sapiens; CNS Cancer SNB-19; 10^−5 M; read-out: Growth inhibition percentage
Method: as §1, §2, §3, §4, §5

SW-620 = conditions: Homo sapiens; Colon Cancer SW-620; 10^−5 M; read-out: Growth inhibition percentage
Method: as §1, §2, §3, §4, §5

SK-MEL-2 = conditions: Homo sapiens; Melanoma SK-MEL-2; 10^−5 M; read-out: Growth inhibition percentage
Method: as §1, §2, §3, §4, §5

MDA-MB-468 = conditions: Homo sapiens; Breast Cancer MDA-MB-468; 10^−5 M; read-out: Growth inhibition percentage
Method: as §1, §2, §3, §4, §5

HS 578T = conditions: Homo sapiens; Breast Cancer HS 578T; 10^−5 M; read-out: Growth inhibition percentage
Method: as §1, §2, §3, §4, §5

SNB-75 = conditions: Homo sapiens; CNS Cancer SNB-75; 10^−5 M; read-out: Growth inhibition percentage
Method: as §1, §2, §3, §4, §5

OVCAR-5 = conditions: Homo sapiens; Ovarian Cancer OVCAR-5; 10^−5 M; read-out: Growth inhibition percentage
Method: as §1, §2, §3, §4, §5

HL-60(TB) = conditions: Homo sapiens; Leukemia HL-60(TB); 10^−5 M; read-out: Growth inhibition percentage
Method: as §1
as §2, with “article. […]” for “article.”
on their site (http://www.dtp.nci.nih.gov). But briefly, the protocol performed at sixty human […]
National Cancer Institute, Bethesda, USA. If the results obtained meet selection criteria, then the […]
10-4 molar or 150 μg/mL. Detailed methods are described in supplementary material related to […]
2. MTT- Cytotoxicity assay method […]
should not exceed 10^6 cells/cm2. Each test should include a blank containing complete medium […]
salt solution without phenol red and serum. Add reconstituted MTT in an amount equal to 10% of the culture medium volume.

SMILES | inhibition at 10 µM (COLO 205) [%] | inhibition at 10 µM (NCI-H460) [%] | inhibition at 10 µM (SK-MEL-28) [%] | inhibition at 10 µM (MDA-MB-435) [%] | inhibition at 10 µM (CCRF-CEM) [%] | inhibition at 10 µM (HOP-62) [%] | inhibition at 10 µM (SK-MEL-5) [%] | inhibition at 10 µM (OVCAR-8) [%] | inhibition at 10 µM (UACC-62) [%] | inhibition at 10 µM (A549/ATCC) [%] | inhibition at 10 µM (NCI-H23) [%] | inhibition at 10 µM (LOX IMVI) [%] | inhibition at 10 µM (HCC-2998) [%] | inhibition at 10 µM (NCI-H226) [%] | inhibition at 10 µM (BT-549) [%] | inhibition at 10 µM (SR) [%] | inhibition at 10 µM (DU-145) [%] | inhibition at 10 µM (HCT-116) [%] | inhibition at 10 µM (SNB-19) [%] | inhibition at 10 µM (SW-620) [%] | other results
COC(=O)C=C1SC(=Nc2cccnc2)N(NC(=O)c2cc3ccc2CCc2ccc(cc2)CC3)C1=O [Compound 3c, Methyl (E)-2-((E)-3-[2.2]paracyclophanyl)amido-4-oxo-2-(pyridin-3-ylimino)-thiazolidin-5-ylidene)acetate] | 0 | 0.75 | 0.86 | 0 | 31.3 | 4 | 3.64 | 1.51 | 10.7 | 2.04 | 9.18 | 9.78 | 0 | 7.48 | 18.4 | 74.2 | 0 | 6.35 | 16.6 | 10.8 | inhibition at 10 µM (SK-MEL-2): 0%; inhibition at 10 µM (MDA-MB-468): 18%; inhibition at 10 µM (HS 578T): 0%; inhibition at 10 µM (SNB-75): 0.25%; inhibition at 10 µM (OVCAR-5): 0.61%; inhibition at 10 µM (HL-60(TB)): 48.6%
C=CCN1C(=O)C(=CC(=O)OC)SC1=NNC(=O)c1cc2ccc1CCc1ccc(cc1)CC2 [Compound 3d] | 0 | 0 | 0 | 0 | 77.1 | 0 | 7.53 | 11.8 | 22.8 | 5.2 | 11.8 | 21.2 | 0 | 12.4 | 38.3 | 98.2 | 0 | 46 | 15.3 | 55.5 | inhibition at 10 µM (SK-MEL-2): 2.7%; inhibition at 10 µM (MDA-MB-468): 23.7%; inhibition at 10 µM (HS 578T): 6.41%; inhibition at 10 µM (SNB-75): 21.9%; inhibition at 10 µM (OVCAR-5): 3.9%; inhibition at 10 µM (HL-60(TB)): 8.16%
COC(=O)C=C1SC(=NNC(=O)c2cc3ccc2CCc2ccc(cc2)CC3)N(Cc2ccccc2)C1=O [Compound 3b] | 27.3 | 6.29 | 0 | 8.44 | 96.2 | 22.8 | 17.7 | 28 | 48.1 | 22.9 | 22.6 | 93.8 | 20.5 | 35.2 | 89.7 | 115 | 16.8 | 50.5 | 43.1 | 81.8 | inhibition at 10 µM (SK-MEL-2): 14.4%; inhibition at 10 µM (MDA-MB-468): 78.9%; inhibition at 10 µM (HS 578T): 12.6%; inhibition at 10 µM (SNB-75): 48.8%; inhibition at 10 µM (OVCAR-5): 34.6%; inhibition at 10 µM (HL-60(TB)): 105%
COC(=O)/C=C1/S/C(=N/NC(=O)c2cc3ccc2CCc2ccc(cc2)CC3)N(C2CC2)C1=O [Compound 3f] | 4.48 | 1.98 | 10.3 | 8.06 | 41.4 | 0 | 14.5 | 13.3 | 18 | 11.4 | 9.32 | 9.41 | 0 | 9.41 | 26.8 | 39.1 | 6.2 | 24.6 | 11.3 | 12.9 | inhibition at 10 µM (SK-MEL-2): 13.5%; inhibition at 10 µM (MDA-MB-468): 29.7%; inhibition at 10 µM (HS 578T): 5.01%; inhibition at 10 µM (SNB-75): 24.7%; inhibition at 10 µM (OVCAR-5): 0%; inhibition at 10 µM (HL-60(TB)): 26.4%
COC(=O)C=C1SC(=NNC(=O)c2cc3ccc2CCc2ccc(cc2)CC3)N(c2ccccc2)C1=O [Compound 3a] | 52.3 | 39.4 | 17.5 | 10.4 | 87 | 97 | 30.6 | 59.3 | 74.8 | 30.9 | 59.6 | 128 | 96.4 | 26.2 | 64.5 | 116 | 49.1 | 96 | 60.1 | 92.6 | inhibition at 10 µM (SK-MEL-2): 13%; inhibition at 10 µM (MDA-MB-468): 100%; inhibition at 10 µM (HS 578T): 22.1%; inhibition at 10 µM (SNB-75): 54.3%; inhibition at 10 µM (OVCAR-5): 51.8%; inhibition at 10 µM (HL-60(TB)): 83.6%
CCN1C(=O)C(=CC(=O)OC)SC1=NNC(=O)c1cc2ccc1CCc1ccc(cc1)CC2 [Compound 3e] | 0 | 0 | 0 | 0.72 | 66.1 | 0 | 7.5 | 7.42 | 21.4 | 3 | 0.4 | 26.5 | 0 | 7.31 | 7.73 | 113 | 0 | 50.5 | 14.4 | 91.2 | inhibition at 10 µM (SK-MEL-2): 5.78%; inhibition at 10 µM (MDA-MB-468): 12.7%; inhibition at 10 µM (HS 578T): 1.03%; inhibition at 10 µM (SNB-75): 21.2%; inhibition at 10 µM (OVCAR-5): 0%; inhibition at 10 µM (HL-60(TB)): 11.6%
